Experiments:
Assay type in all cases: cell-based
[1] = system: interleukin-33 (IL-33) gene; assay: Inhibition of IL-33 gene expression in PMA-stimulated NHEK (real time PCR); details: Normal Human Epidermal Keratinocytes, PMA 25 ng/mL, 3 hours, compound 10 to 20 μM, GAPDH internal standard; FIG. 1 and FIG. 4
Method: The following provides the details of in vitro tests. 6×10^4 cells of Normal Human Epidermal Keratinocytes (NHEK manufactured by KURABO INDUSTRIES LTD.) were seeded on a 12 well plate and cultured at 37° C. under 5% CO2 conditions for 72 hours. The incubation medium was removed and then replaced by a culture medium including the following inflammatory stimulating substance (final concentration: 25 ng/mL) and the individual compound used in each of the above Test Examples, followed by further culturing at 37° C. under 5% CO2 conditions for 3 hours. Thereafter, total RNA was purified from cells according to the instruction manual of product name “PureLink RNA Mini kit” (INVITROGEN), and RNA purified using the test kit “ReverTra Ace™ qPCR RT Master Mix (manufactured by TOYOBO CO., LTD.)” was reverse-transcribed to cDNA. For the cDNA, IL-33 mRNA expression level was quantitatively evaluated by a real time PCR method. Glyceraldehyde-3-phosphate dehydrogenase (GAPDH) was used as an internal standard calibration. The compounds used in Test Examples were dissolved in dimethyl sulfoxide (DMSO) to prepare the individual stocks, and then respectively dissolved in the culture media to have a concentration of 10 to 20 μM. At this time, dilution was performed to allow DMSO to have a concentration (1% or less) at which no cytotoxicity is caused. […]

[2] = system: interleukin-1α (IL-1α) gene; assay: Inhibition of IL-1α gene expression in PMA-stimulated NHEK (real time PCR); details: Normal Human Epidermal Keratinocytes, PMA 25 ng/mL, 3 hours, compound 10 to 20 μM, GAPDH internal standard; FIG. 2 and FIG. 5
[3] = system: interleukin-1β (IL-1β) gene; assay: Inhibition of IL-1β gene expression in PMA-stimulated NHEK (real time PCR); details: Normal Human Epidermal Keratinocytes, PMA 25 ng/mL, 3 hours, compound 10 to 20 μM, GAPDH internal standard; FIG. 3 and FIG. 6

CCCCCCCCCCCCCCCC(=O)OC[C@H](O)[C@H]1OC(=O)C(OCC(O)CO)=C1O (stereo partly drawn) [2-O-glyceryl-6-O-hexadecanoyl ascorbic acid]
inhibited: IL-33 mRNA expression level [1] | expression of interleukin-1α (IL-1α) gene [2] | expression of interleukin-1β (IL-1β) gene [3]

From patent US20250213525A1, “Atopic Dermatitis Improving Agent, Interleukin Production Inhibitor, and Inhibitor of Expression of Interleukin Gene” (PIAS CORPORATION, priority 2022, published 2025)
